The source made the active and inactive calls. The rule behind the calls is not given here.
Columns and labels:
[1] = tested on: DU-145; experiment: Cell cycle arrest in human DU145 cells assessed as accumulation at S phase at 25 uM after 24 hrs by RNase/propidium iodide staining-based flow cytometry (reference value: 4.24%); assay type: functional
[2] = tested on: DU-145; experiment: Cell cycle arrest in human DU145 cells assessed as accumulation at S phase at 15 uM after 24 hrs by RNase/propidium iodide staining-based flow cytometry (reference value: 4.24%); assay type: functional
[3] = tested on: DU-145; experiment: Cell cycle arrest in human DU145 cells assessed as accumulation at G2/M phase at 50 uM after 24 hrs by RNase/propidium iodide staining-based flow cytometry (reference value: 13.7%); assay type: functional
[4] = tested on: DU-145; experiment: Cell cycle arrest in human DU145 cells assessed as accumulation at G1 phase at 5 uM after 24 hrs by RNase/propidium iodide staining-based flow cytometry (reference value: 82.57%); assay type: functional
[5] = tested on: DU-145; experiment: Cell cycle arrest in human DU145 cells assessed as accumulation at G1 phase at 50 uM after 24 hrs by RNase/propidium iodide staining-based flow cytometry (reference value: 82.57%); assay type: functional
[6] = tested on: DU-145; experiment: Reduction in NF-kappaB p65 phosphorylation in human DU145 cells at 5 to 25 uM after 24 hrs by Western blotting analysis; assay type: functional, cell-based
[7] = tested on: DU-145; experiment: Cell cycle arrest in human DU145 cells assessed as accumulation at G1 phase at 10 uM after 24 hrs by RNase/propidium iodide staining-based flow cytometry (reference value: 82.57%); assay type: functional
[8] = tested on: MCF7; experiment: Cytotoxicity against human MCF7 cells after 48 hrs by SRB method; assay type: functional, cell-based; details: MCF7, 48 h
[9] = tested on: HeLa; experiment: Cytotoxicity against human HeLa cells after 48 hrs by SRB method; assay type: functional, cell-based
[10] = tested on: DU-145; experiment: Cell cycle arrest in human DU145 cells assessed as accumulation at S phase at 50 uM after 24 hrs by RNase/propidium iodide staining-based flow cytometry (reference value: 4.24%); assay type: functional
[11] = tested on: DU-145; experiment: Effect on NF-kappaB total expression in human DU145 cells at 5 to 25 uM after 24 hrs by Western blotting analysis; assay type: functional, cell-based
[12] = tested on: DU-145; experiment: Cell cycle arrest in human DU145 cells assessed as accumulation at G2/M phase at 10 uM after 24 hrs by RNase/propidium iodide staining-based flow cytometry (reference value: 13.7%); assay type: functional
[13] = tested on: DU-145; experiment: Cell cycle arrest in human DU145 cells assessed as accumulation at G2/M phase at 5 uM after 24 hrs by RNase/propidium iodide staining-based flow cytometry (reference value: 13.7%); assay type: functional
[14] = tested on: DU-145; experiment: Cell cycle arrest in human DU145 cells assessed as accumulation at G2/M phase after 24 hrs by RNase/propidium iodide staining-based flow cytometry; assay type: functional
[15] = tested on: DU-145; experiment: Cell cycle arrest in human DU145 cells assessed as accumulation at G2/M phase at 15 uM after 24 hrs by RNase/propidium iodide staining-based flow cytometry (reference value: 13.7%); assay type: functional
[16] = tested on: DU-145; experiment: Cell cycle arrest in human DU145 cells assessed as accumulation at S phase at 5 uM after 24 hrs by RNase/propidium iodide staining-based flow cytometry (reference value: 4.24%); assay type: functional
[17] = tested on: DU-145; experiment: Cell cycle arrest in human DU145 cells assessed as accumulation at G1 phase at 15 uM after 24 hrs by RNase/propidium iodide staining-based flow cytometry (reference value: 82.57%); assay type: functional
[18] = tested on: DU-145; experiment: Cytotoxicity against human DU145 cells after 48 hrs by SRB method; assay type: functional, cell-based; details: DU-145, 48 h
[19] = tested on: DU-145; experiment: Cell cycle arrest in human DU145 cells assessed as accumulation at G2/M phase at 25 uM after 24 hrs by RNase/propidium iodide staining-based flow cytometry (reference value: 13.7%); assay type: functional
[20] = tested on: DU-145; experiment: Cell cycle arrest in human DU145 cells assessed as accumulation at S phase at 10 uM after 24 hrs by RNase/propidium iodide staining-based flow cytometry (reference value: 4.24%); assay type: functional
[21] = tested on: Mycobacterium sp.; experiment: Antimycobacterial activity against Mycobacterium sp.; assay type: functional, organism-based
[22] = tested on: A549; experiment: Cytotoxicity against human A549 cells after 48 hrs by SRB method; assay type: functional, cell-based; details: A549, 48 h
[23] = tested on: DU-145; experiment: Cell cycle arrest in human DU145 cells assessed as accumulation at G1 phase at 25 uM after 24 hrs by RNase/propidium iodide staining-based flow cytometry (reference value: 82.57%); assay type: functional
[24] = Cytotoxicity against mouse NIH/3T3 cells after 48 hrs by SRB method; assay type: cell-based; details: NIH3T3, 48 h
[25] = tested on: DU-145; experiment: Cell cycle arrest in human DU145 cells assessed as accumulation at G1 phase after 24 hrs by RNase/propidium iodide staining-based flow cytometry; assay type: functional

| SMILES | IC50 [8] [µM] | IC50 [9] [µM] | IC50 [18] [µM] | Activity [21] | IC50 [22] [µM] | IC50 [24] [µM] | also measured |
| --- | --- | --- | --- | --- | --- | --- | --- |
| Cc1cn([C@H]2C[C@H](N=[N+]=[N-])[C@@H](c3nc4ccccc4c4c3[nH]c3ccccc34)O2)c(=O)[nH]c1=O | 4.78 | 17.3 | 10.1 | inactive | 6.2 | 63.3 | Activity [1]: 11.78%; Activity [2]: 6.53%; Activity [3]: 39.57%; Activity [4]: 80.75%; Activity [5]: 52.07%; Activity [6]: Active; Activity [7]: 77.6%; Activity [10]: 9.74%; Activity [11]: inactive; Activity [12]: 18.23%; Activity [13]: 15.78%; Activity [14]: Dose-dependent effect; Activity [15]: 19.79%; Activity [16]: 4.16%; Activity [17]: 74.76%; Activity [19]: 28.22%; Activity [20]: 5%; Activity [23]: 62.12% |
| COc1ccc(-c2nc3ccccc3c3c2[nH]c2ccccc23)cc1 | 27.8 | 36.1 | 62 | inactive | 23.8 | 114 |  |
| C=CCOc1ccc(-c2nc3ccccc3c3c2[nH]c2ccccc23)cc1 | 11.9 | 27.5 | 23.6 | inactive | 6.22 | > 200 |  |
| FC(F)(F)c1ccc(-c2nc3ccccc3c3c2[nH]c2ccccc23)cc1 | 5.07 | 20.8 | 4.19 | inactive | 3.71 | 110 |  |
| c1csc(-c2ccc(-c3nc4ccccc4c4c3[nH]c3ccccc34)s2)c1 | 10.7 | 6.59 | 0.52 | inactive | 3.03 | 89.5 | Activity [1]: 2.83%; Activity [2]: 2.97%; Activity [3]: 1.89%; Activity [4]: 84.55%; Activity [5]: 97.58%; Activity [6]: Active; Activity [7]: 86.17%; Activity [10]: 0.63%; Activity [11]: inactive; Activity [12]: 10.74%; Activity [13]: 12.38%; Activity [25]: Dose-dependent effect; Activity [15]: 9.6%; Activity [16]: 3.61%; Activity [17]: 87.81%; Activity [19]: 7.89%; Activity [20]: 3.79%; Activity [23]: 89.28% |
| Fc1cccc(Cl)c1-c1nc2ccccc2c2c1[nH]c1ccccc12 | 13.3 | 22.9 | 14 | inactive | 6.35 | 71.1 |  |
| c1ccc2nc(-c3nc4ccccc4c4c3[nH]c3ccccc34)ccc2c1 | 52.6 | 69.9 | 41.5 | inactive | 68.4 | > 200 |  |
| c1ccc(Oc2ccc(-c3nc4ccccc4c4c3[nH]c3ccccc34)cc2)cc1 | 49.6 | 42.8 | 54 | inactive | 13.2 | > 200 |  |
| COc1cccc2c1C(=O)c1c(O)c3c(c(O)c1C2=O)C[C@@](O)(C(=O)CO)C[C@@H]3O[C@H]1C[C@H](N)[C@H](O)[C@H](C)O1 [DOXORUBICIN] | 2.31 | 1.43 | 3.11 |  | 1.11 | 5.91 |  |
| CCc1ccc(-c2nc3ccccc3c3c2[nH]c2ccccc23)cc1 | 9.84 | 19 | 46.2 | inactive | 9.33 | 200 |  |
| c1ccc(COc2ccc(-c3nc4ccccc4c4c3[nH]c3ccccc34)cc2)cc1 | 58.9 | 67.9 | 70 | inactive | 29.9 | > 200 |  |
| Brc1ccc(-c2nc3ccccc3c3c2[nH]c2ccccc23)cc1 | 23.4 | 49.3 | 18.6 | inactive | 17.1 | > 200 |  |
| Cc1cn([C@H]2C[C@H](N=[N+]=[N-])[C@@H](CO)O2)c(=O)[nH]c1=O [ZIDOVUDINE] | 35 | 65.5 | 34.5 | inactive | 16.2 | > 200 |  |
| CC(C)c1nc2ccccc2c2c1[nH]c1ccccc12 | 20.2 | 18.2 | 43.9 | inactive | 18.1 | > 200 |  |

Source: ChEMBL document CHEMBL3421548, “PMA-SiO2 catalyzed synthesis of indolo[2,3-c]quinolines as potent anti cancer agents” (Bioorg Med Chem Lett, 2015)
